In patent publication US8912173B2, “Substituted quinolines and their use as medicaments” (Boehringer Ingelheim International GmbH, priority 2011, dated 2014):

System: patients with ITP
Experiment: not given
Details: single center open label study; cited from earlier work

| SMILES | platelet counts |
| --- | --- |
| COc1cc(Nc2ncc(F)c(Nc3ccc4c(n3)N(COP(=O)(O)O)C(=O)C(C)(C)O4)n2)cc(OC)c1OC [Example R788] | improved platelet counts |

Target: Recombinant human Syk (amino acids 342-635), GST-Syk kinase fusion protein (Homo sapiens (Human), UniProt P43405)
Experiment: Syk Kinase Test (Kinase Glo Luminescence Kinase test)
Details: read-out: IC50-value (+0.2% BSA in μM); +0.2% BSA
Description: The catalytic activity of the GST-Syk kinase fusion protein was determined using the Kinase Glo® Luminescence Kinase test (Promega; V6712). In this homogeneous test the amount of ATP remaining after the kinase reaction is quantified by a luciferin-luciferase reaction using luminescence. The luminescence signal obtained correlates with the amount of ATP still present and thus correlates inversely with the activity of the protein kinase.
GST-Syk was diluted to 6.0 nM in the test buffer and 10 μl of this dilution were used in the kinase test (final concentration of Syk=4 nM in a total volume of 15 μl).
Positive controls are the reaction mixtures that contain no test substance; negative controls (blanks) are reaction mixtures that contain no kinase.
After 60 minutes, 10 μl Kinase-Glo® solution (Promega, Cat. #V6712) (heated to room temperature) were added to each well and incubation was continued for a further 15 minutes. The plates were read in a Microplate Scintillation and Luminescence Counter (Canberra Packard GmbH).
Data Evaluation and Calculation:
The output file of the “Counter” is a text file that contains the well number and measured counts in two columns. […] Based on this values the % inherent value for the measurement of each substance concentration was calculated using an “MS-Excel-VB macro”. […] The IC50 values were calculated from the % inhibition values using “GraphPadPrism” software (Version 5) (GraphPad Software Inc.).

| SMILES | IC50 [µM] |
| --- | --- |
| C[C@@H](Oc1cc(-c2ccccn2)cc2ncccc12)[C@H]1CNC(=O)C1 [Example 6, (R)-4-((R)-1-(7-(pyridin-2-yl)quinolin-5-yloxy)ethyl)pyrrolidin-2-one] | 0.0017 |

Same assay, conditions: read-out: IC50-value (+0.2% HSA in μM); +0.2% HSA

| SMILES | IC50 [µM] |
| --- | --- |
| Cc1nc2ccc(-c3cc(O[C@H](C)[C@H]4CNC(=O)C4)c4cccnc4c3)cc2s1 [Example 85, (R)-4-((R)-1-(7-(2-methylbenzo[d]thiazol-6-yl)quinolin-5-yloxy)ethyl)pyrrolidin-2-one] | 0.0002 |
| C[C@@H](Oc1cc(-c2ccc3c(c2)ncn3C)cc2ncccc12)[C@H]1CNC(=O)C1 [Example 94, (R)-4-((R)-1-(7-(1-methyl-1H-benzo[d]imidazol-5-yl)quinolin-5-yloxy)ethyl)pyrrolidin-2-one] | 0.0003 |
| C[C@@H](Oc1cc(-c2ccc3c(c2)CNCC3)cc2ncccc12)[C@H]1CNC(=O)C1 [Example 101, (R)-4-((R)-1-(7-(1,2,3,4-tetrahydroisoquinolin-7-yl)quinolin-5-yloxy)ethyl)pyrrolidin-2-one] | 0.0004 |
| COc1cc(-c2cc(O[C@H](C)[C@H]3CNC(=O)C3)c3cccnc3c2)ccc1C(F)(F)F [Example 102, (R)-4-((R)-1-(7-(3-methoxy-4-(trifluoromethyl)phenyl)quinolin-5-yloxy)ethyl)pyrrolidin-2-one] | 0.0045 |
| Cc1nc2cc(-c3cc(O[C@H](C)[C@H]4CNC(=O)C4)c4cccnc4c3)ccc2n1C [Example 105, (R)-4-((R)-1-(7-(1,2-dimethyl-1H-benzo[d]imidazol-5-yl)quinolin-5-yloxy)ethyl)pyrrolidin-2-one] | 0.0002 |
| Cc1nc2cc(-c3cc(O[C@H](C)[C@H]4CNC(=O)C4)c4cccnc4c3)ccc2[nH]1 [Example 109, (R)-4-((R)-1-(7-(2-methyl-1H-benzo[d]imidazol-5-yl)quinolin-5-yloxy)ethyl)pyrrolidin-2-one] | 0.0004 |
| Cc1c(-c2cc(O[C@H](C)[C@H]3CNC(=O)C3)c3cccnc3c2)cnn1C [Example 112, (R)-4-((R)-1-(7-(1,5-dimethyl-1H-pyrazol-4-yl)quinolin-5-yloxy)ethyl)pyrrolidin-2-one] | 0.0012 |
